Patent EP0472573B1, “HERBICIDE RESISTANT MAIZE” (ZENECA LIMITED, priority 1989, dated 1990)

Columns and labels:
[1] = target: ALS enzyme extracted from Mutant 6 (heterozygous); experiment: ALS enzyme assay, heterozygous Mutant 6; format: biochemical, Zea mays; settings: for IC50: ALS of heterozygous Mutant 6, read-out: ID50% (the source's name); for resistance group, Enzyme Assay: Mutant 6, groups Strong, Intermediate, Weak, Zero; for Fold Increase: fold increase in resistance vs wild type, heterozygous Mutant 6, 30 min
Protocol: Seeds of generation M₁BC₁ M₁BC₂ of the nine mutants were sprayed pre-emergence with the herbicide imazethapyr (PURSUIT) (Trade Mark) at a rate of 250 g/ha and grown in a growth chamber (16 hour day, 27°C; 8 hour night, 17°C). Plants were harvested after 11 days.
(§1) Four grams of leaf material were harvested from just above the first leaf axis and ground in a mortar and pestle in 20ml of a solution containing 40mM Tricine (Trade Mark), 10mM EDTA, 5mM pyruvate, 80 »M flavin adenine dinucleotide (FAD), 1mM dithiothreitol (DTT), pH 8, plus 0.8g Polyclar AT. The homogenate was pressed through four layers of muslin and centrifuged at 30,000g for 20 minutes.
(§2) The supernatant was brought to 65% saturation with ammonium sulphate, left to precipitate for 30 minutes and then centrifuged at 30.000g for 20 minutes. The pellet was resuspended in 2.5ml of 40mM Tricine, 10mM EDTA, 5mM pyruvate, 80»M FAD, 25% (v/v) glycerol, 1mM DTT, pH 8, and desalted into 3.5ml of 40mM Tricine, 10mM EDTA, 25% (v/v) glycerol, 1mM DTT, pH 8.
(§3) One hundred microlitres of the enzyme extract was used for each assay. Final reagent concentrations were: 120mM Tricine, 50mM pyruvate, 10mM MgCl₂, […], 93»M thiamine pyrophosphate (TPP), pH 8, in the presence or absence of a herbicide of interest, in a volume of 750 »l. Incubations were carried out at 37°C for 30 minutes. Reactions were stopped with 250»l of 1.84M sulphuric acid, and decarboxylation of the acetolactate carried out at 37°C for 75 minutes, or at 60°C for 30 minutes. Assay blanks had sulphuric acid added prior to the enzyme extract. To the samples and blanks 650»l of α-naphthol in 2.73M NaOH/0.16%(w/v) creatine were added followed by incubation at 37°C for 30 minutes. After centrifugation at 30,000g the optical density of the supernatant was read at 540nm.
(§4) The assay procedure described was carried out on ALS enzyme extracted from each of the nine mutants for the following herbicides: imazethapyr (PURSUIT) imazapyr (ARSENAL) imazaquin (SCEPTER) chlorsulfuron (GLEAN) chlorimuron (CLASSIC) […] (HARMONY) The enzyme activity graphs are given as Figures 3 to 8. In addition, homozygous lines of mutants 1 and 2 which were selected from generation M₁BC₁S₂, were also tested against the same group of herbicides and against representatives of the triazolopyrimidines and phenoxypyrimidines. The chemical structures of these herbicides are shown in Figure 2 of the accompanying drawings.
(§5) From the enzyme assay data it is possible to derive, as a measure of the degree of inhibition the factor ID50% for each mutant and for each herbicide. This factor is indicative of the herbicide concentration which gives 50% inhibition of the ALS activity in comparison with the wild-type control. It is also possible to derive the fold increase in resistance.

[2] = target: ALS extracted from leaves of MUTANT 1 (homozygous); experiment: ALS enzyme assay, homozygous Mutant 1; format: biochemical, Zea mays; settings: for IC50: ALS of homozygous Mutant 1, read-out: ID50% Mutant; for Fold Increase: fold increase in resistance vs wild type, homozygous Mutant 1, 30 min
Protocol: as §1, §2, §3, §4, §5

[3] = system: M1 seed of maize inbred line UE95 (sensitive plants); experiment: Pre-emergence screening of M1 seed; format: in vivo, Zea mays
Protocol: M1 seed was sown, 100 seeds per tray, in WCB growing medium (low organic matter, 45% loam, 55% grit) and sprayed to 'run-off' using a track sprayer, with a solution of imazethapyr (PURSUIT) at a concentration calculated to be the equivalent of 250 g/ha of active ingredient . The seeds were covered with 0.5 inch of WCB and grown in the glasshouse at 25°C.
The chosen application rate was such that germination was close to 100%, but subsequently all susceptible plants were severely affected. However, after about two weeks, the initial effect of the herbicide became apparent: thin striped leaves and reduced height of only about 20% of the height of the control plants. […] Unsprayed UE95 plants were always grown in parallel with each screen as a control as it was already known that normal and M1 seedlings of UE95 are almost indistinguishable when germinated and grown to maturity without spraying.

SMILES | IC50 [1] | resistance group, Enzyme Assay [1] | Fold Increase [1] | IC50 [2] | Fold Increase [2] | germination ([3]; 250 g/ha of active ingredient, pre-emergence, glasshouse at 25°C) | effect on sensitive plants ([3]; 250 g/ha, after three to four weeks) | reduced height ([3]; 250 g/ha, susceptible plants, after about two weeks)
COc1cc(Cl)nc(NC(=O)NS(=O)(=O)c2ccccc2C(=O)O)n1 [Chlorimuron, chlorimuron] | 15 nM | Weak | 4 | 0.01 µM | 2.7 | – | – | –
COc1nc(C)nc(NC(=O)NS(=O)(=O)c2ccccc2Cl)n1 [Chlorsulfuron, chlorsulfuron] | 65 nM | Weak | 4 | 0.06 µM | 3.2 | – | – | –
CC(C)C1(C)N=C(c2nc3ccccc3cc2C(=O)O)NC1=O (centres unmarked) [Imazaquin, imazaquin] | 1500 nM | Weak | 2 | 175 µM | 292 | – | – | –
CCc1cnc(C2=NC(=O)C(C)(C(C)C)N2)c(C(=O)O)c1 (centres unmarked) [Imazethapyr, 5-ethyl-2-(5-iso-propyl-5-methyl-4-oxo-2-imidazolin-2-yl) nicotinic acid] | 60000 nM | Weak | 40 | 750 µM | 500 | ~100% | almost all the sensitive plants were completely dead | about 20 % of the height of the control plants
